The values that follow come from ChEMBL document CHEMBL1156829 (Proc Natl Acad Sci U S A, 2008).

Data set [1] relates to Plasmodium falciparum. The data set can be described thus: NOVARTIS: Inhibition of Plasmodium falciparum 3D7 (drug-susceptible) proliferation in erythrocyte-based infection assay. Format: functional, organism-based. The following applies: Plasmodium falciparum, 3D7.
The subject of data set [2] is Plasmodium falciparum. Description: NOVARTIS: Inhibition of Plasmodium falciparum W2 (drug-resistant) proliferation in erythrocyte-based infection assay. Format: functional, organism-based. The note with it: Plasmodium falciparum, W2; read-out: EC50.
Data set [3] can be described thus: NOVARTIS: Cytotoxicity against human hepatocellular carcinoma cell line (Huh7). The following applies: Huh7 cells (hepatocellular carcinoma cell line). Format: toxicity, cell-based, Huh-7.

`CCN(CC)S(=O)(=O)c1ccc(C(=O)NCc2nnc(SCC(=O)N3CCc4ccccc43)n2-c2ccccc2OC)cc1`: the EC50 with Plasmodium falciparum [1] was over 1250 nM; with Plasmodium falciparum [2], 26.7 nM. The molecule also displayed a cytotoxic concentration (CC50) in data set [3] of over 10000 nM.
For `O=C1CSC(=Nc2ccc(F)c(Cl)c2)N1c1ccc(F)c(Cl)c1`, in that order: over 1250 nM, 26.7 nM and over 10000 nM.
For `O=C(CN1CCC(NC(=O)c2cccc(F)c2)CC1)NC1CC1`, in that order: over 1250 nM, 26.7 nM and over 10000 nM.
For `CO[C@H]1C[C@H](C)Cc2cc(O)cc(c2)NC(=O)C(C)=CCC[C@H](OC)[C@@H](OC(N)=O)C(C)=CC(C)[C@H]1O` (stereo partly specified), in that order: over 1250 nM, 26.7 nM and over 10000 nM.
Consider `O=C(CCn1c(=S)oc2ccccc21)N1CCN(c2ccccc2)CC1`, for which the values for the EC50 in the data set with Plasmodium falciparum [1] and with Plasmodium falciparum [2] were over 1250 nM and 26.7 nM, respectively. For the same molecule, the cytotoxic concentration (CC50) in data set [3] is over 10000 nM.
On the same counts, the results for `CCn1c(CNc2ccc(Cl)cc2)nnc1SCC(=O)Nc1cccc(C)c1C` are over 1250 nM, 26.7 nM and over 10000 nM.
On the same counts, the results for `C=CCNC(=O)c1ccc2c(c1)N=C(CC(C)c1ccccc1)N(CCCN1CCCC1=O)C2` (stereo unspecified) are over 1250 nM, 26.7 nM and over 10000 nM.
On the same counts, the results for `Cc1ccccc1OCc1nnc(SCC(=O)Nc2ccc([N+](=O)[O-])cc2)n1C` are over 1250 nM, 26.7 nM and over 10000 nM.
In the case of `CCn1c(SCC(=O)Nc2cccc(C)c2)nnc1-c1ccccc1`, the concentration for a half-maximal effect (EC50) in the data set on Plasmodium falciparum [1] is over 1250 nM; with Plasmodium falciparum [2], 26.7 nM. Further, the CC50 in data set [3] was over 10000 nM.
For `CCN(CC)C(=O)c1cn(C2CCN(Cc3ccco3)CC2)nn1`, in that order: over 1250 nM, 26.7 nM and over 10000 nM.
As for `COc1ccc(-c2nc3ccccc3n2C2CCN(Cc3ccc(C)o3)CC2)cc1OC`, the concentration for a half-maximal effect (EC50) was over 1250 nM with Plasmodium falciparum [1] and 26.7 nM in the data set with Plasmodium falciparum [2]. Further, the CC50 in data set [3] is over 10000 nM.
For the molecule `CC(C)CC1=Nc2cc(C(=O)NCc3ccccc3)ccc2CN1Cc1cccnc1`, the EC50 in the data set with Plasmodium falciparum [1] was over 1250 nM; in the data set with Plasmodium falciparum [2], 26.7 nM. In data set [3], this molecule gave a 50% cytotoxic concentration (CC50) of over 10000 nM.
On the same counts, the results for `CCOc1cccc(C2=Nc3cc(C(=O)NC(C)C)ccc3CN2CC2CCCCC2)c1` are over 1250 nM, 26.7 nM and over 10000 nM.
For `Cn1c(=NC(=O)c2ccc(S(=O)(=O)N3CCCCC3)cc2)sc2cc(Cl)ccc21`, in that order: over 1250 nM, 26.7 nM and over 10000 nM.
`O=C(ON(C(=O)c1ccc(F)cc1)C1C2CC3CC(C2)CC1C3)c1ccc(F)cc1` (stereo unspecified): the results for the concentration giving a half-maximal response (EC50) in the data set with Plasmodium falciparum [1] and with Plasmodium falciparum [2] were over 1250 nM and 26.7 nM, respectively. In data set [3], the CC50 was over 10000 nM.
For `CCN(CC)Cc1cc2ccc(C)cc2n(CC(=O)OC)c1=O`, in that order: over 1250 nM, 26.7 nM and over 10000 nM.
Take `CC(=O)C(=NNc1cc(C(F)(F)F)cc(C(F)(F)F)c1)C(C)=O`: the EC50 in the data set on Plasmodium falciparum [1] was over 1250 nM; with Plasmodium falciparum [2] it was 26.7 nM. In addition, the CC50 in data set [3] was over 10000 nM.
With `Cc1ccccc1CN1CCN(C/C=C/c2ccccc2)CCC1=O`, the EC50 is over 1250 nM with Plasmodium falciparum [1] and 26.7 nM with Plasmodium falciparum [2]. The CC50 in data set [3] is over 10000 nM.
For `CCCCCCCCC(=O)Nc1c(C)cccc1C`, in that order: over 1250 nM, 26.7 nM and over 10000 nM.
For `CCN(CC)C(=O)c1cn(C2CCN(C(=O)CCc3cccc(OC)c3)CC2)nn1`, in that order: over 1250 nM, 26.7 nM and over 10000 nM.
For `CC(=O)N1c2ccccc2NC2=C(C(=O)CCC2)C1c1ccc([N+](=O)[O-])cc1` (stereo unspecified), in that order: over 1250 nM, 26.7 nM and over 10000 nM.
As to `CCn1c(CSc2nc(C)cc(C)n2)nnc1SCC(N)=O`, the results for the EC50 in the data set on Plasmodium falciparum [1] and in the data set on Plasmodium falciparum [2] were over 1250 nM and 26.7 nM, respectively. This molecule registered a CC50 in data set [3] of over 10000 nM.

Usually EC50 stands for the concentration giving half of the maximal effect. The CC50 is the concentration at which the toxic effect on the cells reaches its halfway point. Higher therefore signals better tolerance by the cells.
